Test results from BindingDB's records for doi:10.1021/jm00101a008 (Centre De Recherche De Vitry-Alfortville, 1992).

Tests used:
[1] = molecular target: Leukotriene B4 receptor (Cavia porcellus); test: Inhibition of [3H]LTB4 binding to Leukotriene B4 receptor in the guinea pig spleen membranes.
[2] = molecular target: Leukotriene B4 receptor (Cavia porcellus); test: as above; remark: listed apart in the source

SMILES	IC50 [1] [nM]	IC50 [2] [nM]
CC(C)(CCCCCCOc1cc(-c2ccccc2)cc(-c2ccccc2)n1)C(=O)O	22	–
Cc1ccc(-c2cc(-c3ccccc3)cc(OCCCCCC(=O)O)n2)cc1	–	300
O=C(O)CCCCCOc1cc(-c2ccc(NC(=O)C(F)(F)F)cc2)cc(-c2ccccc2)n1	150	–
O=C(O)CCCCCOc1cc(-c2ccccc2Cl)cc(-c2ccccc2)n1	200	–
NC(=O)CCCCCOc1cc(-c2ccccc2)cc(-c2ccccc2)n1	–	160
CC(CCCCOc1cc(-c2ccccc2)cc(-c2ccccc2)n1)C(=O)O (centres undefined)	4	–
CC(CCCCOc1cc(-c2ccccc2)cc(-c2ccccc2F)n1)C(=O)O (centres undefined)	4	–
CC(CCCCOc1cc(-c2ccc3c(c2)OCO3)cc(-c2ccccc2)n1)C(=O)O (centres undefined)	4.2	–
CC(C)(CCCCOc1cc(-c2ccc(N)cc2)cc(-c2ccccc2)n1)C(=O)O	6.6	–
COC(=O)CCCCCOc1cc(-c2ccccc2)cc(-c2ccccc2)n1	40	–
CC(CCCCOc1cc(-c2ccc3c(c2)OCO3)cc(-c2ccccc2Cl)n1)C(=O)O (centres undefined)	2	–
O=C(O)CCCCCOc1cc(-c2ccccc2)cc(-c2ccccc2)n1	3	–
O=C(O)CCCCCOc1cc(-c2ccc([N+](=O)[O-])cc2)cc(-c2ccccc2)n1	50	–
N#CCCCCCOc1cc(-c2ccccc2)cc(-c2ccccc2)n1	–	700
O=C(O)CCCCOc1cc(-c2ccccc2)cc(-c2ccccc2)n1	50	–
O=C(O)CCCCCOc1cc(-c2ccc3c(c2)OCO3)cc(-c2ccccc2)n1	1	–
O=C(O)CCCCCCOc1cc(-c2ccccc2)cc(-c2ccccc2)n1	25	–
O=C(O)CCCOc1cc(-c2ccccc2)cc(-c2ccccc2)n1	–	300
COc1ccc(-c2cc(-c3ccccc3)cc(OCCCCCC(=O)O)n2)cc1	–	1000
